# Test results published in paper PMC8161026, “Synthesis and Anticancer Activity Evaluation of 5-[2-Chloro-3-(4-nitrophenyl)-2-propenylidene]-4-thiazolidinones” (Molecules, 2021).
# Legend:
# OVCAR-8 = assay: NCI DTP 60 cell line screen, SRB
# Colo 205 = assay: NCI DTP 60 cell line screen, SRB
# SW-620 [1] = assay: cells; details: Homo sapiens, SW-620, 48 h
# SNB-75 = assay: cells; details: Homo sapiens, SNB-75, 48 h
# SK-MEL-28 [2] = details: SK-MEL-28 (Melanoma), 48 h, SRB
# SK-MEL-2 = SK-MEL-2 (Melanoma), 48 h, SRB
# SW-620 [3] = details: SW-620 (Colon Cancer), 48 h, SRB
# MCF-7 = assay: NCI DTP 60 cell line screen, SRB
# NCI-322M = assay: NCI DTP 60 cell line screen, SRB; details: 48 h
# UO-31 = assay: NCI DTP 60 cell line screen, SRB
# SK-MEL-28 [4] = assay: cells; details: Homo sapiens, SK-MEL-28, 48 h
# CCRF-CEM = assay: NCI DTP 60 cell line screen, SRB; details: 48 h
# UACC-62 = assay: NCI DTP 60 cell line screen, SRB
# PC-3 = assay: cells; details: Homo sapiens, PC-3, 48 h
# A549/ATCC [5] = assay: cells; details: Homo sapiens, A549, 48 h
# K-562 = assay: cells; details: Homo sapiens, K562, 48 h
# SK-MEL-5 = assay: NCI DTP 60 cell line screen, SRB
# A549/ATCC [6] = details: A549/ATCC (Non-Small Cell Lung Cancer), 48 h, SRB
# OVCAR-5 = assay: NCI DTP 60 cell line screen, SRB
# NCI-H23 = NCI-H23 (Non-Small Cell Lung Cancer), 48 h, SRB
# HS 578T = assay: NCI DTP 60 cell line screen, SRB; details: 48 h
# DU-145 = assay: cells; details: Homo sapiens, DU-145, 48 h
# CAKI-1 = assay: NCI DTP 60 cell line screen, SRB
# SN12C = SN12C (Renal Cancer), 48 h, SRB
# MDA-MB-231/ATCC = assay: NCI DTP 60 cell line screen, SRB
smiles,measurement,setting,value
"O=C1NC(=S)S/C1=C\C(Cl)=C\c1ccc([N+](=O)[O-])cc1 [Compound 2b, 5-[(Z,2Z)-2-Chloro-3-(4-nitrophenyl)-2-propenylidene]-2-thioxo-4-thiazolidinone]",GI50,"OVCAR-8; Homo sapiens, OVCAR-8, 48 h",5.08 µM
same,CC50,"OVCAR-8; Homo sapiens, OVCAR-8, 48 h, read-out: LC50",47.9 µM
same,TGI,"OVCAR-8; OVCAR-8 (Ovarian Cancer), 48 h, SRB",15.6 µM
same,TGI,"Colo 205; Colo 205 (Colon Cancer), 48 h, SRB",17.4 µM
same,GI50,"Colo 205; Homo sapiens, COLO 205, 48 h",4.04 µM
same,CC50,"Colo 205; Homo sapiens, COLO 205, 48 h, read-out: LC50",> 50 µM
same,GI50,SW-620 [1],1.94 µM
same,CC50,SW-620 [1]; read-out: LC50,23.5 µM
same,GI50,SNB-75,7.59 µM
same,CC50,SNB-75; read-out: LC50,> 50 µM
same,TGI,SK-MEL-28 [2],12.3 µM
same,TGI,SK-MEL-2,26.9 µM
same,TGI,SW-620 [3],7.62 µM
same,GI50,"MCF-7; Homo sapiens, MCF7, 48 h",2.14 µM
same,CC50,"MCF-7; Homo sapiens, MCF7, 48 h, read-out: LC50",> 50 µM
same,TGI,"MCF-7; MCF-7 (Breast Cancer), 48 h, SRB",38.0 µM
same,GI50,"NCI-322M; Homo sapiens, NCI-322M",6.51 µM
same,CC50,"NCI-322M; Homo sapiens, NCI-322M, read-out: LC50",> 50 µM
same,TGI,"NCI-322M; NCI-322M (Non-Small Cell Lung Cancer), SRB",18.8 µM
same,GI50,"UO-31; Homo sapiens, UO-31, 48 h",4.12 µM
same,CC50,"UO-31; Homo sapiens, UO-31, 48 h, read-out: LC50",> 50 µM
same,TGI,"UO-31; UO-31 (Renal Cancer), 48 h, SRB",21.8 µM
same,GI50,SK-MEL-28 [4],5.87 µM
same,CC50,SK-MEL-28 [4]; read-out: LC50,25.9 µM
same,TGI,"CCRF-CEM; CCRF-CEM (Leukemia), SRB",21.5 µM
same,GI50,"CCRF-CEM; Homo sapiens, CCRF-CEM",1.97 µM
same,CC50,"CCRF-CEM; Homo sapiens, CCRF-CEM, read-out: LC50",> 50 µM
same,GI50,"UACC-62; Homo sapiens, UACC-62, 48 h",5.75 µM
same,CC50,"UACC-62; Homo sapiens, UACC-62, 48 h, read-out: LC50",27.2 µM
same,TGI,"UACC-62; UACC-62 (Melanoma), 48 h, SRB",12.5 µM
same,GI50,PC-3,4.68 µM
same,CC50,PC-3; read-out: LC50,> 50 µM
same,GI50,A549/ATCC [5],8.18 µM
same,CC50,A549/ATCC [5]; read-out: LC50,> 50 µM
same,GI50,K-562,1.44 µM
same,CC50,K-562; read-out: LC50,> 50 µM
same,GI50,"SK-MEL-5; Homo sapiens, SK-MEL-5, 48 h",3.82 µM
same,CC50,"SK-MEL-5; Homo sapiens, SK-MEL-5, 48 h, read-out: LC50",24 µM
same,TGI,"SK-MEL-5; SK-MEL-5 (Melanoma), 48 h, SRB",10.6 µM
same,TGI,A549/ATCC [6],> 50 µM
same,GI50,"OVCAR-5; Homo sapiens, OVCAR-5, 48 h",11.1 µM
same,CC50,"OVCAR-5; Homo sapiens, OVCAR-5, 48 h, read-out: LC50",32.4 µM
same,TGI,"OVCAR-5; OVCAR-5 (Ovarian Cancer), 48 h, SRB",19.5 µM
same,TGI,NCI-H23,13.4 µM
same,TGI,"HS 578T; HS 578T (Breast Cancer), SRB",12.1 µM
same,GI50,"HS 578T; Homo sapiens, Hs-578T",1.42 µM
same,CC50,"HS 578T; Homo sapiens, Hs-578T, read-out: LC50",> 50 µM
same,GI50,DU-145,7.09 µM
same,CC50,DU-145; read-out: LC50,28.4 µM
same,TGI,"CAKI-1; CAKI-1 (Renal Cancer), 48 h, SRB",25.2 µM
same,GI50,"CAKI-1; Homo sapiens, CAKI-1, 48 h",7.14 µM
same,CC50,"CAKI-1; Homo sapiens, CAKI-1, 48 h, read-out: LC50",> 50 µM
same,TGI,SN12C,18.0 µM
same,GI50,"MDA-MB-231/ATCC; Homo sapiens, MDA-MB-231, 48 h",8.16 µM
same,CC50,"MDA-MB-231/ATCC; Homo sapiens, MDA-MB-231, 48 h, read-out: LC50",> 50 µM
same,TGI,"MDA-MB-231/ATCC; MDA-MB-231/ATCC (Breast Cancer), 48 h, SRB",28.1 µM
